Data published in patent US5378848A, “Condensed imidazopyridine derivatives” (Shionogi & Co., Ltd., priority 1992, dated 1995).

Legend:
[1] = tested on: Pentylenetetrazole-Induced Convulsion; test: Potentiation of Pentylenetetrazole-Induced Convulsion (inverse agonist activity); assay type: in vivo; conditions: Mus musculus, iv; male mice; test compound i.v.; pentylenetetrazole 90 mg/kg s.c.; 2-hour observation; probit method; read-out: ED50 (dose required to produce tonic convulsion and death in 50% of the animals)
Procedure: (§1) Inverse agonist activity was evaluated in this Experiment. Pentylenetetrazole was subscutaneously administered male mice (a group of 8-16 male mice was employed in each test) at a dose of 90 mg/kg immediately after intravenous injection of the test compound. The dose (ED50) required to produce tonic convulsion and death in 50% of the animals during subsequent 2-hour observation period was calculated by the probit method.

[2] = molecular target: Benzodiazepine Receptor; test: Test on Binding to Benzodiazepine Receptor (inhibition of specific binding of tritium-labeled diazepam); set-up: species or system male Wistar rats; conditions: rat cerebral cortex; 2 nM tritium-labeled diazepam; 0° C., 60 minutes; Ki=IC50÷(1+L/Kd)
Procedure: This test was carried out modifying partially a method of Moehler & Okada, Science, 198, 849-851 (1977). Receptor preparation was provided from the cerebral cortex of male Wistar rats (11-13 weeks age). Inhibitory action of the test compound on the specific binding of tritium-labeled diazepam to the receptor was evaluated as follows: 2 nM tritium-labeled diazepam and an aqueous solution of the test compound in 5 or 6 different concentrations were incubated with the receptor preparation at 0° C. for 60 minutes. The 50% inhibitory concentration (IC50) was measured by the concentration-response curve. In addition, the inhibitory constant (Ki) of the test compound was calculated by dissociation constant (Kd) and concentration (L) of tritium-labelled diazepam.

[3] = tested on: Pentylenetetrazole-Induced Convulsion; test: Antagonism of Pentylenetetrazole-Induced Convulsion (agonistic activity); assay type: in vivo; conditions: Mus musculus, iv; male mice; test compound i.v.; pentylenetetrazole 125 mg/kg s.c.; 2-hour observation; probit method; read-out: ED50 (dose required to prevent tonic convulsion and death in 50% of the animals)
Procedure: as §1, with “Agonistic” for “Inverse agonist”, “subcutaneously” for “subscutaneously”, “125” for “90”, “prevent” for “produce”

[4] = tested on: human memory; conditions: M. Sarter et al., TINS 11, 13 (1988); cited from earlier work

SMILES | ED50 [1] | Ki [2] | ED50 [3] | effect on human memory [4]
c1cc(-c2nc3cnc4c(c3[nH]2)CSCC4)no1 [If-1, 2-(3-Isoxazolyl)-1,6,7,9-tetrahydroimidazo[4,5-d]-thiopyrano[4,3-b]pyridine] | 0.96 mg/kg | 0.44 nM |  | 
c1ccc(-c2nc3cnc4c(c3[nH]2)CCCC4)cc1 [Ia-1, 2-Phenyl-6,7,8,9-tetrahydro-1H-imidazo[4,5-c]quinoline] |  | 13.7 nM | 7.85 mg/kg | 
c1csc(-c2nc3cnc4c(c3[nH]2)CCCCC4)c1 [Ic-3] |  | 6.06 nM |  | 
CCOC(=O)N1CCc2ncc3nc(-c4ccon4)[nH]c3c2C1 [Ig-1, 2-(3-isoxazolyl)-8-ethoxycarbonyl-6,7,8,9-tetrahydro-1H-imidazo[4,5-c]naphthylidine] |  | 2.8 nM | 3.69 mg/kg | 
c1cc(-c2nc3cnc4c(c3[nH]2)COCC4)no1 [Ib-7, 2-(3-Isoxazolyl)-1,6,7,9-tetrahydroimidazo[4,5-d]pyrano[4,3-b]pyridine] | 1.27 mg/kg | 2.09 nM |  | 
CC1(C)Cc2ncc3nc(-c4ccon4)[nH]c3c2C1 [Ie-1, 2-(3-Isoxazolyl]-7,7-dimethyl-1H-imidazo[4,5-d]-cyclopenta[b]pyridine] | 0.25 mg/kg | 7.2 nM |  | 
c1cc(-c2nc3cnc4c(c3[nH]2)CCC4)no1 [Id-1] | 0.4 mg/kg | 2.55 nM |  | 
Cc1cc(-c2nc3cnc4c(c3[nH]2)CCCCC4)on1 [Ic-7] |  | 9.47 nM | 1.05 mg/kg | 
Cc1cc(-c2nc3cnc4c(c3[nH]2)COCC4)on1 [Ib-5] |  | 6.97 nM | 0.8 mg/kg | 
Cc1cc(-c2nc3cnc4c(c3[nH]2)CCC4)on1 [Id-2] |  | 8.94 nM | 0.74 mg/kg | 
c1cc(-c2nc3cnc4c(c3[nH]2)CCCCC4)no1 [Ic-6] |  | 2.29 nM |  | 
c1csc(-c2nc3cnc4c(c3[nH]2)CCCC4)c1 [Ia-3] |  | 1.9 nM |  | 
CN1C(=O)CN=C(c2ccccc2)c2cc(Cl)ccc21 [diazepam] |  |  |  | inhibits human memory
Cc1cc(-c2nc3cnc4c(c3[nH]2)CCCC4)on1 [Ia-6] |  | 2.19 nM | 0.17 mg/kg | 
c1coc(-c2nc3cnc4c(c3[nH]2)CCCC4)c1 [Ia-5] |  | 3.46 nM |  | 
c1cc(-c2nc3cnc4c(c3[nH]2)CCCC4)no1 [Ia-7, 2-(3-Isoxazolyl) -6,7,8,9-tetrahydro-1H-imidazo[4,5-c]quinoline] |  | 1.3 nM |  | 
